# Laboratory results from patent US20070185055A1, “Method for treating cachexia with retinoid ligands” (priority 2006, published 2007).
# Tests used:
# [1] = system: nude mice bearing H292 xenografts (non-small cell lung cancer cells H292); experiment: Cachexia in nude mice bearing H292 xenografts; format: in vivo; settings: for body weight of the animals: s.c. H292 xenograft
# Text: FIGS. 1-5 comprise charts or graphs disclosing the results of tests obtained with experimental animals that have been inoculated with a xenograft of non-small cell lung cancer cells H292 or with small cell lung cancer cells H446, and which were then orally administered the RXR agonist Compound 1 referred to above. […]
# Specifically, in the experiment shown in FIG. 1 nude mice were subcutaneously transplanted with non-small cell lung cancer cells H292. A group of the animals was given a daily oral dose of 10 mg per kilogram body weight of Compound 1 in a suitable pharmaceutically acceptable vehicle. A group of the control animals was given the vehicle only.
# In the experiment shown in FIG. 4 the right gastrocnemius muscle of the control animals and of the animals treated with Compound 1 in a daily dose of 10 mg/kg, as described in connection with FIG. 1, was weighed after the animals had been sacrificed.
# In the experiment shown in FIG. 5, the food intake of nude mice with and without H292 xenografts was evaluated. Mice with H292 xenografts had reduced appetite compared with normal control. […] Therefore, adminstration of Compound 1 reverses poor appetite in cachectic animals. […]
# [2] = system: AIDS and cancer patients; settings: cited from earlier work
# [3] = system: SCID mice transplanted with small cell lung cancer cells H446; experiment: Cachexia in SCID mice bearing metastatic H446 tumors; format: in vivo; settings: daily oral dose 3 mg/kg or 10 mg/kg, versus vehicle only (FIG. 3)
# Procedure: FIGS. 1-5 comprise charts or graphs disclosing the results of tests obtained with experimental animals that have been inoculated with a xenograft of non-small cell lung cancer cells H292 or with small cell lung cancer cells H446, and which were then orally administered the RXR agonist Compound 1 referred to above.
# In the experiment shown in FIG. 3, SCID mice were subcutaneously transplanted with small cell lung cancer cells H446. A first group of the animals was given a daily oral dose of 3 mg per kilogram body weight of Compound 1 in a suitable pharmaceutically acceptable vehicle, and a second group was given a daily oral dose of 10 mg per kilogram body weight in the same vehicle. A group of the control animals was given the vehicle only.
# [4] = patients, J. Clin. Oncol., 20: 567 (2002)
# [5] = AIDS as well as cancer patients, literature
compound,measurement,setting,value
CCC[C@]1(c2ccc3c(c2)C(C)(C)CCC3(C)C)C[C@H]1/C=C/C(C)=C/C(=O)O [Compound 2],average food intake,"[1]; nude mice bearing H292 xenografts, daily dose 50 mg/kg, versus vehicle (FIG. 7)",significantly larger food intake
same,body weight of the animals,"[1]; nude mice, daily oral dose 50 mg/kg, versus vehicle only (FIG. 6)",significantly greater body weights
CCCCCc1cc(O)c2c(c1)OC(C)(C)[C@@H]1CCC(C)=C[C@@H]21 [Dronabinol],appetite,[2]; [4],improved appetite
same,mood and body weight improvement,[2]; [4],no effect
CC(=O)O[C@]1(C(C)=O)CC[C@H]2[C@@H]3C=C(C)C4=CC(=O)CC[C@]4(C)[C@H]3CC[C@@]21C [Megestrol acetate],body weight gain,[2]; [5],at least five pounds
same,primary body component that increased,[2]; [5],"fat, but not lean body mass"
C[C@]12COC(=O)C[C@@H]1CC[C@@H]1[C@@H]2CC[C@@]2(C)[C@H]1CC[C@]2(C)O [Oxandrolone],body weight,"[2]; patients, literature, for Oxandrolone might have represented primary edema",moderate increase of body weight
CC(/C=C/[C@@H]1C[C@]1(C)c1ccc2c(c1)C(C)(C)CCC2(C)C)=C\C(=O)O [Compound 1],weight of the right gastrocnemius muscle,"[1]; H292 xenograft mice, 62 days after transplantation, daily dose 10 mg/kg, versus control (FIG. 4)",prevents muscle wasting
same,average food intake,"[1]; nude mice with H292 xenografts, daily dose 10 mg/kg, compared with normal mice (FIG. 5)",equal amount of food intake as normal mice
same,percentage of survival,"[1]; nude mice, H292 xenograft, daily oral dose 10 mg/kg, versus vehicle (FIG. 2)",significantly better survival rate
same,body weight of the animals,"[1]; nude mice, daily oral dose 10 mg/kg, versus vehicle only (FIG. 1)",significantly greater body weights
same,body weight of the animals,[3],significantly greater body weights
